Where “and” joins values, the source holds several entries; their conditions need not be identical. Equal values may be shown once.
Columns and labels:
[1] = tested on: UM cell lines containing mutant GNAQ or GNA11; settings: cited from earlier work
[2] = tested on: skin-derived melanoma cell lines driven by mutant B-Raf or N-Ras; parameters: method as in ref 18 = [18]; 18. Visser M, Papillon J, Fan J, Luzzio M, Michael W, Wang R, et al. NVP-LXS196, a novel PKC inhibitor for the treatment of uveal melanoma. Paper presented at: Abstracts of papers of the American Chem; settings: cited from earlier work
dog = tested on: dog; parameters: method as in ref 20 = [20]; 20. IDEAYA Biosciences. IDE196 (LXS196, Darovasertib) investigator’s brochure. IDEAYA Biosciences; 2022.; settings: cited from earlier work
patients with MUM = assay: First cycle dose-limiting toxicities, phase I dose escalation; format: in vivo; settings: for Maximum tolerated dose (MTD): BLRM and EWOC
Method: The study protocol and amendments were approved by the Independent Ethics Committee or Institutional Review Board for each centre, and all patients provided written informed consent. The study was conducted according to the principles of the Declaration of Helsinki and performed in compliance with Good Clinical Practice. All patients were aged ≥18 years old and had biopsy-proven MUM with progressive and measurable disease. […] There was no eligibility limit to the number of prior lines of therapy, including PKC inhibitors other than LXS196.
During dose escalation, patients received oral LXS196 either once daily (QD; 100–1000 mg) or twice daily (BID; 200–400 mg) in 28-day cycles until disease progression, intolerable toxicity or withdrawal of consent (Supplementary Fig. 1). Dosing was omitted on the second day of the first cycle (C1D2) to allow for longer post-dose sampling in order to better characterise PK. LXS196 was given on an empty stomach, at least 1 h before or 2 h after a meal. Dose escalation was guided by safety, PK data and a two-parameter Bayesian Logistic Regression Model (BLRM) employing escalation with overdose control (EWOC) criteria. The DLT period lasted 28 days after the first dose of LXS196. […] Upon determination of the MTD/RDE, the expansion part of the study was opened to further evaluate the safety, tolerability, PK and PD of LXS196 at the RDE in patients with MUM. No hypothesis testing was planned in this study, and therefore, no formal sample size calculation was needed. The sample size was selected to ensure the BLRM had adequate operating characteristics when selecting the MTD/RDE.
Routine safety assessments, including laboratory assessments, physical examinations, vital signs and electrocardiograms (ECGs), were conducted at regular intervals throughout the study and more frequently as needed following patient assessment by the treating physician. Adverse events (AEs) were assessed continuously according to the National Cancer Institute Common Terminology Criteria for Adverse Events (NCI-CTCAE) v4.03.

CC1(N)CCN(c2cccnc2NC(=O)c2nc(-c3ncccc3C(F)(F)F)cnc2N)CC1 [LXS196]
Cellular activity [1]: cellular activity restricted to UM cell lines containing mutant GNAQ or GNA11 | Cellular activity [2]: no activity observed | Reversibility of findings (dog; 4-week recovery phase): partial to complete reversibility | Potential target organ (dog; 4-week toxicology study, dog): GI tract | Potential toxicity (dog; single-dose and 4-week repeated dose, dog): decrease in systolic blood pressure | Generalised oedema DLT (patients with MUM; 100 mg QD n=3): 0 n (%) | Hypotension DLT (patients with MUM; 100 mg QD n=3): 0 n (%) | Nausea DLT (patients with MUM; 100 mg QD n=3): 0 n (%) | Neutropenia DLT (patients with MUM; 100 mg QD n=3): 0 n (%) | Total DLT events (patients with MUM; 100 mg QD n=3): 0 n (%) | Vomiting DLT (patients with MUM; 100 mg QD n=3): 0 n (%) | Generalised oedema DLT (patients with MUM; 200 mg BID n=5): 0 n (%) | Hypotension DLT (patients with MUM; 200 mg BID n=5): 0 n (%) | Nausea DLT (patients with MUM; 200 mg BID n=5): 0 n (%) | Neutropenia DLT (patients with MUM; 200 mg BID n=5): 0 n (%) | Total DLT events (patients with MUM; 200 mg BID n=5): 0 n (%) | Vomiting DLT (patients with MUM; 200 mg BID n=5): 0 n (%) | Generalised oedema DLT (patients with MUM; 200 mg QD n=4): 0 n (%) | Hypotension DLT (patients with MUM; 200 mg QD n=4): 0 n (%) | Neutropenia DLT (patients with MUM; 200 mg QD n=4): 0 n (%) | Total DLT events (patients with MUM; 200 mg QD n=4): 2 (50.0) n (%) | Nausea DLT (patients with MUM; 200 mg QD n=4, Grade 3): 1 (25.0) (Grade 3) n (%) | Vomiting DLT (patients with MUM; 200 mg QD n=4, Grade 3): 1 (25.0) (Grade 3) n (%) | Generalised oedema DLT (patients with MUM; 300 mg BID n=6): 0 n (%) | Hypotension DLT (patients with MUM; 300 mg BID n=6): 0 n (%) | Nausea DLT (patients with MUM; 300 mg BID n=6): 0 n (%) | Neutropenia DLT (patients with MUM; 300 mg BID n=6): 0 n (%) | Total DLT events (patients with MUM; 300 mg BID n=6): 0 n (%) | Vomiting DLT (patients with MUM; 300 mg BID n=6): 0 n (%) | Generalised oedema DLT (patients with MUM; 300 mg QD n=15): 0 n (%) | Hypotension DLT (patients with MUM; 300 mg QD n=15): 0 n (%) | Nausea DLT (patients with MUM; 300 mg QD n=15): 0 n (%) | Neutropenia DLT (patients with MUM; 300 mg QD n=15): 0 n (%) | Total DLT events (patients with MUM; 300 mg QD n=15): 0 n (%) | Vomiting DLT (patients with MUM; 300 mg QD n=15): 0 n (%) | Hypotension DLT (patients with MUM; 400 mg BID n=6): 1 (16.7) n (%) | Nausea DLT (patients with MUM; 400 mg BID n=6): 0 n (%) | Neutropenia DLT (patients with MUM; 400 mg BID n=6): 0 n (%) | Total DLT events (patients with MUM; 400 mg BID n=6): 2 (33.4) n (%) | Vomiting DLT (patients with MUM; 400 mg BID n=6): 0 n (%) | Generalised oedema DLT (patients with MUM; 400 mg BID n=6, Grade 3): 1 (16.7) (Grade 3) n (%) | Generalised oedema DLT (patients with MUM; 500 mg QD n=11): 0 n (%) | Nausea DLT (patients with MUM; 500 mg QD n=11): 0 n (%) | Total DLT events (patients with MUM; 500 mg QD n=11): 3 (27.3) n (%) | Vomiting DLT (patients with MUM; 500 mg QD n=11): 0 n (%) | Hypotension DLT (patients with MUM; 500 mg QD n=11, Grade 3): 2 (18.2) (Grade 3) n (%) | Neutropenia DLT (patients with MUM; 500 mg QD n=11, Grade 4): 1 (9.1) (Grade 4) n (%) | Generalised oedema DLT (patients with MUM; 800 mg QD n=1): 0 n (%) | Nausea DLT (patients with MUM; 800 mg QD n=1): 0 n (%) | Neutropenia DLT (patients with MUM; 800 mg QD n=1): 0 n (%) | Total DLT events (patients with MUM; 800 mg QD n=1): 1 (100) n (%) | Vomiting DLT (patients with MUM; 800 mg QD n=1): 0 n (%) | Hypotension DLT (patients with MUM; 800 mg QD n=1, Grade 4): 1 (100) (Grade 4) n (%) | Generalised oedema DLT (patients with MUM; 1000 mg QD n=4): 0 n (%) | Nausea DLT (patients with MUM; 1000 mg QD n=4): 0 n (%) | Neutropenia DLT (patients with MUM; 1000 mg QD n=4): 0 n (%) | Total DLT events (patients with MUM; 1000 mg QD n=4): 2 (50.0) n (%) | Vomiting DLT (patients with MUM; 1000 mg QD n=4): 0 n (%) | Hypotension DLT (patients with MUM; 1000 mg QD n=4, Grade 2 and 4): 2 (50.0) (Grade 2 and 4) n (%) | Generalised oedema DLT (patients with MUM; All BID n=17): 1 (5.9) n (%) | Hypotension DLT (patients with MUM; All BID n=17): 1 (5.9) n (%) | Nausea DLT (patients with MUM; All BID n=17): 0 n (%) | Neutropenia DLT (patients with MUM; All BID n=17): 0 n (%) | Total DLT events (patients with MUM; All BID n=17): 2 (11.8) n (%) | Vomiting DLT (patients with MUM; All BID n=17): 0 n (%) | Generalised oedema DLT (patients with MUM; All QD n=38): 0 n (%) | Hypotension DLT (patients with MUM; All QD n=38): 5 (13.2) n (%) | Nausea DLT (patients with MUM; All QD n=38): 1 (2.6) n (%) | Neutropenia DLT (patients with MUM; All QD n=38): 1 (2.6) n (%) | Total DLT events (patients with MUM; All QD n=38): 8 (21.0) n (%) | Vomiting DLT (patients with MUM; All QD n=38): 1 (2.6) n (%) | Generalised oedema DLT (patients with MUM; All patients n=55): 1.8 n (%) and 1 (1.8) n (%) | Hypotension DLT (patients with MUM; All patients n=55): 6 (10.9) n (%) | Nausea DLT (patients with MUM; All patients n=55): 1.8 n (%) and 1 (1.8) n (%) | Neutropenia DLT (patients with MUM; All patients n=55): 1.8 n (%) and 1 (1.8) n (%) | Total DLT events (patients with MUM; All patients n=55): 16.4 n (%) | Vomiting DLT (patients with MUM; All patients n=55): 1.8 n (%) and 1 (1.8) n (%) | Recommended dose for expansion (RDE) (patients with MUM; BID): 300 mg | Maximum tolerated dose (MTD) (patients with MUM; BID schedule): 400 mg | Maximum tolerated dose (MTD) (patients with MUM; QD schedule): 500 mg | Doses at which hypotension DLT occurred (patients with MUM; most common DLT): ≥ 500 mg/day

Source: PMC10006169, “A phase I trial of LXS196, a protein kinase C (PKC) inhibitor, for metastatic uveal melanoma” (British Journal of Cancer, 2023)
